Measurements as given in patent US11649236B2, “Polycyclic carbamoylpyridone derivative” (Shionogi & Co., Ltd., priority 2018, dated 2023).

test system: HIV; assay: Anti-HIV activity (MT-4 cells, MTT); format: cell-based; conditions: Human immunodeficiency virus 1, MT4, 96 h, cultured 4 days
Description: Serial dilutions of a test sample were prepared in a 96-well microplate (50 μL/well). 2.5×10^5 cells/mL of a MT-4 cell suspension was dispensed at 100 μL/well to the plate containing the test sample. Then, an HIV virus solution was dispensed at 50 μL/well. The plate was mixed with a plate mixer and cultured for 4 days in a CO2 incubator. An MTT (3-(4,5-dimethylthiazol-2-yl)-2,5-diphenyltetrazolium bromide) solution was dispensed at 30 μL/well. The plate was reacted for 1 hour in a CO2 incubator. 150 μL of the supernatant was removed from each well so as not to take up the cells. 150 μL of a cell lysis solution was added to each well and well mixed with a plate mixer until the cells were completely lysed. The absorbance of the mixed plate was measured at two wavelengths of 560 nm and 690 nm with a microplate reader.

Structure (SMILES)	EC50 [nM]
CCN1C(=O)c2c(O)c(=O)c(C(=O)NCc3ccc(F)cc3F)cn2N2CCOC[C@@H]12 [Compound I-001]	0.52
CCN1C(=O)c2c(O)c(=O)c(C(=O)NCc3ccc(F)c(Cl)c3F)cn2N2CCCC[C@@H]12 [Compound I-003]	1.4
CCN1C(=O)c2c(O)c(=O)c(C(=O)NCc3ccc(F)c(Cl)c3F)cn2N2CCOC[C@@H]12 [Compound I-004]	0.56
CCN1C(=O)c2c(O)c(=O)c(C(=O)NCc3ccc(F)c(Cl)c3F)cn2N2CCC[C@@H]12 [Compound I-005]	1.3
CCN1C(=O)c2c(O)c(=O)c(C(=O)NCc3cc(Cl)c(F)cc3F)cn2N2CCCC[C@@H]12 [Compound I-007]	4
CCN1C(=O)c2c(O)c(=O)c(C(=O)NCc3ccc(F)cc3F)cn2N2CCC[C@@]12C [Compound I-008]	2
CCN1C(=O)c2c(O)c(=O)c(C(=O)NCc3ccc(F)cc3F)cn2N2CCN(C(=O)OC(C)(C)C)C[C@@H]12 [Compound I-009]	1.2
CCN1C(=O)c2c(O)c(=O)c(C(=O)NCc3ccc(F)cc3F)cn2N2CCNC[C@@H]12 [Compound I-010]	1.9
CCN1C(=O)c2c(O)c(=O)c(C(=O)NCc3ccc(F)c(C)c3F)cn2N2CCCC[C@@H]12 [Compound I-012]	4
CCN1C(=O)c2c(O)c(=O)c(C(=O)NCc3ccc(F)cc3F)cn2N2CCN(C)C[C@@H]12 [Compound I-013]	5.6
CCN1C(=O)c2c(O)c(=O)c(C(=O)NCc3ccc(Br)cc3F)cn2N2CCCC[C@@H]12 [Compound I-014]	10
COCCN1C(=O)c2c(O)c(=O)c(C(=O)NCc3ccc(F)cc3F)cn2N2CCCC[C@@H]12 [Compound I-016]	1.4
CCN1C(=O)c2c(O)c(=O)c(C(=O)NC3(c4ccc(F)cc4F)CC3)cn2N2CCCC[C@@H]12 [Compound I-017]	6.1
CCN1C(=O)c2c(O)c(=O)c(C(=O)NCc3ccc(F)cc3F)cn2N2Cc3ccccc3[C@@H]12 [Compound I-018]	2.1
CCN1C(=O)c2c(O)c(=O)c(C(=O)NCc3cccc(Cl)c3F)cn2N2CCCC[C@@H]12 [Compound I-019]	1.8
CCN1C(=O)c2c(O)c(=O)c(C(=O)NCc3ccc(F)cc3F)cn2N2CCCC(C)(C)[C@@H]12 [Compound I-020]	1.3
CCCN1C(=O)c2c(O)c(=O)c(C(=O)NCc3ccc(F)cc3F)cn2N2CCCC[C@@H]12 [Compound I-021]	1.1
O=C(NCc1ccc(F)cc1F)c1cn2c(c(O)c1=O)C(=O)N(C[C@H]1CCCO1)[C@@H]1CCCCN12 [Compound I-022]	1.1
O=C(NCc1ccc(F)cc1F)c1cn2c(c(O)c1=O)C(=O)N(C[C@@H]1CCCO1)[C@@H]1CCCCN12 [Compound I-023]	0.62
COCCCN1C(=O)c2c(O)c(=O)c(C(=O)NCc3ccc(F)cc3F)cn2N2CCCC[C@@H]12 [Compound I-024]	2.9
CCN1C(=O)c2c(O)c(=O)c(C(=O)NCc3ccc(F)c(F)c3F)cn2N2CCCC[C@@H]12 [Compound I-025]	1.9
O=C(NCc1ccc(F)cc1F)c1cn2c(c(O)c1=O)C(=O)N(C1CCCC1)[C@@H]1CCCCN12 [Compound I-026]	3.5
CCN1C(=O)c2c(O)c(=O)c(C(=O)NCc3ccc(F)cc3F)cn2N2CCc3ccccc3[C@@H]12 [Compound I-027]	0.89

Structure (SMILES)	EC50 [nM]
O=C(NCc1ccc(F)cc1F)c1cn2c(c(O)c1=O)C(=O)N(CC1CC1)[C@@H]1CCCCN12 [Compound I-028]	1.9
CCN1C(=O)c2c(O)c(=O)c(C(=O)N[C@H](C)c3ccc(F)cc3F)cn2N2CCCC[C@@H]12 [Compound I-029]	12
CCN1C(=O)c2c(O)c(=O)c(C(=O)N[C@@H](C)c3ccc(F)cc3F)cn2N2CCCC[C@@H]12 [Compound I-030]	36
O=C(NCc1ccc(F)cc1F)c1cn2c(c(O)c1=O)C(=O)N(C1CC1)[C@@H]1CCCCN12 [Compound I-031]	0.69
CCN1C(=O)c2c(O)c(=O)c(C(=O)NCc3ccc(F)cc3F)cn2N2CCCCC[C@@H]12 [Compound I-032]	1.2
CCN1C(=O)c2c(O)c(=O)c(C(=O)NCc3cccc(Cl)c3Cl)cn2N2CCCC[C@@H]12 [Compound I-033]	2.5
CCN1C(=O)c2c(O)c(=O)c(C(=O)NCc3ccc(F)c(Cl)c3)cn2N2CCCC[C@@H]12 [Compound I-034]	1.3
CCN1C(=O)c2c(O)c(=O)c(C(=O)NCc3ccc(Cl)cc3F)cn2N2CCCC[C@@H]12 [Compound I-035]	3.2
CCN1C(=O)c2c(O)c(=O)c(C(=O)NCc3cc(F)c(F)cc3F)cn2N2CCCC[C@@H]12 [Compound I-036]	1.4
CCN1C(=O)c2c(O)c(=O)c(C(=O)NCc3cc(F)c(F)c(F)c3)cn2N2CCCC[C@@H]12 [Compound I-037]	2
CCN1C(=O)c2c(O)c(=O)c(C(=O)NCc3ccc(F)cc3Cl)cn2N2CCCC[C@@H]12 [Compound I-038]	0.72
COC[C@H](C)N1C(=O)c2c(O)c(=O)c(C(=O)NCc3ccc(F)cc3F)cn2N2CCCC[C@@H]12 [Compound I-039]	4.4
COC[C@@H](C)N1C(=O)c2c(O)c(=O)c(C(=O)NCc3ccc(F)cc3F)cn2N2CCCC[C@@H]12 [Compound I-040]	0.7
C[C@@H](N1C(=O)c2c(O)c(=O)c(C(=O)NCc3ccc(F)cc3F)cn2N2CCCC[C@@H]12)C(F)(F)F [Compound I-041]	0.66
CCN1C(=O)c2c(O)c(=O)c(C(=O)NCc3cccc(F)c3F)cn2N2CCCC[C@@H]12 [Compound I-042]	0.72
O=C(NCc1ccc(F)cc1F)c1cn2c(c(O)c1=O)C(=O)N(Cc1ccc(F)cc1F)[C@@H]1CCCCN12 [Compound I-043]	3.5
O=C(NCc1ccc(F)cc1F)c1cn2c(c(O)c1=O)C(=O)N([C@@H]1C[C@@H]1F)[C@@H]1CCCCN12 [Compound I-044]	1.2
O=C(NCc1ccc(F)cc1F)c1cn2c(c(O)c1=O)C(=O)N(CCF)[C@@H]1CCCCN12 [Compound I-045]	0.73
O=C(NCc1ccc(F)cc1F)c1cn2c(c(O)c1=O)C(=O)N(CC(F)F)[C@@H]1CCCCN12 [Compound I-046]	0.43
O=C(NCc1ccc(F)cc1F)c1cn2c(c(O)c1=O)C(=O)N(CCCF)[C@@H]1CCCCN12 [Compound I-047]	1.5
CCN1C(=O)c2c(O)c(=O)c(C(=O)NCc3c(F)ccc(Cl)c3F)cn2N2CCCC[C@@H]12 [Compound I-048]	1.2
CCN1C(=O)c2c(O)c(=O)c(C(=O)NCc3c(Cl)ccc(Cl)c3F)cn2N2CCCC[C@@H]12 [Compound I-049]	2.3
O=C(NCc1ccc(F)cc1F)c1cn2c(c(O)c1=O)C(=O)N(C1CC(F)(F)C1)[C@@H]1CCCCN12 [Compound I-051]	0.72

Structure (SMILES)	EC50 [nM]
O=C(NCc1ccc(F)cc1F)c1cn2c(c(O)c1=O)C(=O)N(C1CCC(F)(F)CC1)[C@@H]1CCCCN12 [Compound I-052]	5.5
O=C(NCc1ccc(F)cc1F)c1cn2c(c(O)c1=O)C(=O)N(CC(F)(F)F)[C@@H]1CCCCN12 [Compound I-053]	0.94
CC(C)N1C(=O)c2c(O)c(=O)c(C(=O)NCc3c(F)cc(F)cc3F)cn2N2C[C@@H](C)CC[C@@H]12 [II-001]	1
COC[C@@H](C)N1C(=O)c2c(O)c(=O)c(C(=O)NCc3cccc(Cl)c3F)cn2N2CC[C@H](C)C[C@@H]12 [II-002]	0.77
CCN1C(=O)c2c(O)c(=O)c(C(=O)NC3(c4cccc(Cl)c4F)CC3)cn2N2CCCC[C@@H]12 [II-003]	6.2
COC[C@@H](C)N1C(=O)c2c(O)c(=O)c(C(=O)NCc3cccc(Cl)c3F)cn2N2CCCC[C@@H]12 [II-006]	0.58
C[C@H]1CC[C@H]2N(C)C(=O)c3c(O)c(=O)c(C(=O)NCc4c(F)cc(F)cc4F)cn3N2C1 [II-007]	0.62
CCN1C(=O)c2c(O)c(=O)c(C(=O)NCc3cccc(Cl)c3F)cn2N2[C@H](C)CC[C@@H]12 [II-008]	1.5
COC[C@@H]1CC[C@H]2N(C(C)C)C(=O)c3c(O)c(=O)c(C(=O)NCc4ccc(F)cc4F)cn3N12 [II-010]	1
COC[C@@H]1CC[C@H]2N(C(C)C)C(=O)c3c(O)c(=O)c(C(=O)NCc4c(F)cc(F)cc4F)cn3N12 [II-011]	0.49
CCN1C(=O)c2c(O)c(=O)c(C(=O)N[C@H](C)c3cccc(Cl)c3F)cn2N2CCCC[C@@H]12 [II-012]	3.6
C[C@@H]1CCC[C@H]2N(C)C(=O)c3c(O)c(=O)c(C(=O)NCc4cccc(Cl)c4F)cn3N12 [II-014]	0.55
CCN1C(=O)c2c(O)c(=O)c(C(=O)NCc3c(F)cc(F)cc3F)cn2N2C[C@@H]3CCC[C@@H](C3)[C@@H]12 [II-016]	0.65
CCN1C(=O)c2c(O)c(=O)c(C(=O)NCc3ccc(F)cc3F)cn2N2CCC3(CCC3)C[C@@H]12 [II-017]	1.6
CCN1C(=O)c2c(O)c(=O)c(C(=O)NCc3nccc(Cl)c3F)cn2N2CCCC[C@@H]12 [II-019]	0.23
CCN1C(=O)c2c(O)c(=O)c(C(=O)NCc3ccc(F)cc3F)cn2N2[C@@H]3CCC[C@@H]3C[C@@H]12 [II-025]	1.1
CN1C(=O)c2c(O)c(=O)c(C(=O)NCc3ccc(Cl)cc3F)cn2N2Cc3ccccc3[C@@H]12 [II-029]	3.8
CCN1C(=O)c2c(O)c(=O)c(C(=O)NCc3ccc(F)cc3F)cn2N2[C@H]3CCC[C@H]3CC[C@@H]12 [II-030]	0.86
CCN1C(=O)c2c(O)c(=O)c(C(=O)NCc3cccc(Cl)c3F)cn2N2[C@H](C)CCC[C@@H]12 [II-032]	1.5
CN1C(=O)c2c(O)c(=O)c(C(=O)NCc3ccc(F)c(Cl)c3F)cn2N2CCCC[C@@H]12 [II-033]	0.22
CCOC[C@@H](C)N1C(=O)c2c(O)c(=O)c(C(=O)NCc3ccc(F)cc3F)cn2N2CCCC[C@@H]12 [II-034]	0.73
